Reference: PubChem BioAssay (NCI)
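A five-concentration, 48-hour dose response in 96-well plates underlies each endpoint, interpolated linearly between surrounding concentrations. TGI: total growth inhibition.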

Key:
Experiment in all cases: NCI-60 cell line screen, 48 h
SK-MEL-28 melanoma = system: SK-MEL-28 melanoma
SNB-19 CNS = system: SNB-19 CNS
A498 renal = system: A498 renal
HT29 colon = system: HT29 colon
NCI-H23 lung = system: NCI-H23 lung
SNB-75 CNS = system: SNB-75 CNS
HOP-62 NSCLC = system: HOP-62 NSCLC
OVCAR-3 ovarian = system: OVCAR-3 ovarian
SF-268 CNS = system: SF-268 CNS
RXF-631 renal = system: RXF-631 renal
IGROV1 ovarian = system: IGROV1 ovarian
NCI-H522 lung = system: NCI-H522 lung
RXF 393 renal = system: RXF 393 renal
UO-31 renal = system: UO-31 renal
EKVX NSCLC = system: EKVX NSCLC
XF 498 CNS = system: XF 498 CNS
SK-MEL-2 melanoma = system: SK-MEL-2 melanoma
U251 CNS = system: U251 CNS
ACHN renal = system: ACHN renal
MALME-3M melanoma = system: MALME-3M melanoma
UACC-62 melanoma = system: UACC-62 melanoma
786-0 renal = system: 786-0 renal
SK-MEL-5 melanoma = system: SK-MEL-5 melanoma
TK-10 renal = system: TK-10 renal
SF-539 CNS = system: SF-539 CNS
KM12 colon = system: KM12 colon
OVCAR-5 ovarian = system: OVCAR-5 ovarian
OVCAR-8 ovarian = system: OVCAR-8 ovarian
CCRF-CEM leukemia = system: CCRF-CEM leukemia
NCI-H226 lung = system: NCI-H226 lung
LXFL 529 NSCLC = system: LXFL 529 NSCLC
HOP-92 NSCLC = system: HOP-92 NSCLC
M19-MEL melanoma = system: M19-MEL melanoma
CAKI-1 renal = system: CAKI-1 renal
SF-295 CNS = system: SF-295 CNS
OVCAR-4 ovarian = system: OVCAR-4 ovarian
SK-OV-3 ovarian = system: SK-OV-3 ovarian
SN12C renal = system: SN12C renal
UACC-257 melanoma = system: UACC-257 melanoma
NCI-H460 lung = system: NCI-H460 lung
DLD-1 colon = system: DLD-1 colon
SNB-78 CNS = system: SNB-78 CNS
HL-60(TB) leukemia = system: HL-60(TB) leukemia
HCC-2998 colon = system: HCC-2998 colon
K-562 leukemia = system: K-562 leukemia
HCT-116 colon = system: HCT-116 colon
SW-620 colon = system: SW-620 colon
DMS 114 small cell lung = system: DMS 114 small cell lung
A549 NSCLC = system: A549 NSCLC
M14 melanoma = system: M14 melanoma
DMS 273 small cell lung = system: DMS 273 small cell lung
SR leukemia = system: SR leukemia
MOLT-4 leukemia = system: MOLT-4 leukemia
LOX IMVI melanoma = system: LOX IMVI melanoma
RPMI-8226 leukemia = system: RPMI-8226 leukemia
COLO 205 colon = system: COLO 205 colon
KM20L2 colon = system: KM20L2 colon
HCT-15 colon = system: HCT-15 colon
HOP-18 NSCLC = system: HOP-18 NSCLC

Measured: TGI

C[C@]12CC=CC(=O)[C@@]1(C)CCC(=O)C2
not listed: LOX IMVI melanoma | RPMI-8226 leukemia | COLO 205 colon | KM20L2 colon | HCT-15 colon | HOP-18 NSCLC
> 100 µM: all other assays above

CCCCCCCCCCCC(=O)OCCOCCOCCOCCOCCOC(=O)CCCCCCCCCCC
not listed: XF 498 CNS | SF-539 CNS
> 100 µM: all other assays above
